Data: US9410142B2, “Dendrimer-based excipients for the attenuation of protein aggregation” (Massachusetts Institute of Technology, priority 2010, dated 2016)

Columns and labels:
[1] = Partial molar volume from density measurements of dendrimer only solutions; type: physicochemical
[2] = biological target: α-chymotrypsinogen A (aCgn) (Bos taurus, UniProt P00766); test: DSC denaturation midpoint temperature (Tm) of aCgn; type: physicochemical, Bovine; settings: for dTm/d[3] aCgn denaturation midpoint temperature increment: 1 mg/mL aCgn, 20 mM sodium citrate pH 5, maximum dendrimer 0.2 mol/L; for rate of increase of Tm of aCgn: concentrations less than 0.2 mol/L
Procedure: The thermodynamic stability of aCgn in the presence of the arginine salts was determined by DSC (Microcal VP-Differential Scanning calorimeter located in the Biophysical Instrumentation Facility (BIF) at MIT). Each reading began with a minimum of three buffer-buffer up and down scans (in this case, the buffer also contains the cosolute of interest) to establish a reproducible thermal history followed by a single protein-buffer up scan. aCgn was analyzed at a concentration of 1 mg/mL in a 20 mM sodium citrate pH 5 buffer containing the cosolute of interest and a scan rate of 90° C./hour. The data was analyzed in the MicroCal Origin® plotting software. In the analysis, the last buffer-buffer reference scan was first subtracted from the data and then the data was normalized with respect to the protein concentration, cell volume, and scan rate. The baseline (which was progressed through the peak) was then subtracted from the plot and the denaturation midpoint temperature, Tm, was taken as the temperature at the peak maximum of the unfolding event. For each arginine salt, three concentrations (including zero concentration) were tested and Tm values with respect to cosolute concentration were fitted to a linear trend.
The thermostability of aCgn at 1 mg/mL in the presence of the modified dendrimers was assessed by determining the denaturation midpoint temperature (Tm) from DSC scans, which is a qualitative indicator of how the conformational stability of the protein is perturbed. Ghosh K et al. (2009) Proc Natl Acad Sci USA 106:10649-10654.

| Compound | V0 partial molar volume at infinite dilution [1] [L/mol] | dTm/d[3] aCgn denaturation midpoint temperature increment [2] [K * L/mol] | rate of increase of Tm of aCgn [2] [° C.*M^−1] |
| --- | --- | --- | --- |
| N=C(N)NCCNC(=O)CCN(CCC(=O)NCCNC(=N)N)CCN(CCC(=O)NCCNC(=N)N)CCC(=O)NCCNC(=N)N.O=S(=O)(O)O.O=S(=O)(O)O.O=S(=O)(O)O [Gdm(SO4)1/2] | 0.5665 | 15.2 | 15.2 |
| N=C(N)NCCNC(=O)CCN(CCC(=O)NCCNC(=N)N)CCN(CCC(=O)NCCNC(=N)N)CCC(=O)NCCNC(=N)N.O=P(O)(O)O.O=P(O)(O)O.O=P(O)(O)O.O=P(O)(O)O.O=P(O)(O)O.O=P(O)(O)O [Gdm(H2PO4)] | 0.7254 | 37.4 | 37.4 |
